Each structure is given as a SMILES string. Read-outs that look alike come from different tables or passages of the source.

What all share (type): cell-based
Experiment [1] deals with PC9 cells (EGFR Exon 19 del, non-small cell lung cancer cells). The experiment is described as follows: Cell viability assay (WST/CCK8), PC9 cells. Conditions: Homo sapiens, read-out: IC50 (half inhibitory concentration). A digest of the protocol:
(§1)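 Plated 3 000 cells/well in complete RPMI1640 the day before dosing; controls were DMSO (negative) and EGFR TKIs (positive).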

Experiment [2] has as its system HCC827 cells (EGFR Exon19 del, non-small cell lung cancer cells). The experiment is described as follows: Cell viability assay (WST/CCK8), HCC827 cells. Conditions: Homo sapiens, HCC827, 72 h, read-out: IC50 (half inhibitory concentration). In short, it runs like this: as §1
Experiment [3] relates to BT474 cells (HER2 positive breast cancer cells). As to the kind of experiment: Cell viability assay (CCK8), BT474 cells. Conditions: Homo sapiens, BT-474, Table 10, BT474, 72 hours, read-out: IC50 (half inhibitory concentration). From the text:
The cell lines with abnormal EGFR expression used are as follows: • HCC827 cells (EGFR Exon19 del, non-small cell lung cancer cells); • PC9 cells (EGFR Exon 19 del, non-small cell lung cancer cells); • PC9BracA1 (EGFR Exon 19 del+T790M, non-small cell lung cancer cells) • H1975 (EGFR Exon T790M+L858R mutation, non-small cell lung cancer cell line) • BT474 cells (HER2 positive breast cancer cells)
All of the half inhibitory concentrations (IC50) of these compounds of the present invention were determined with WST reagent from Fuyuan Biotec Company. The specific experiment procedures are as follows: Cancer cells were planted in 96-well-plate at the density of 3 000 cells per well with 100 μL RPMI1640 completed culture medium. In the next day, compounds with indicated concentrations were added to the cells, DMSO was used as the negative control and the EGFR TKIs were used to treat cells as the positive groups. After 72 hours drug treatment, cell viability was measured by using the WST reagent following the instructions. The growth inhibition curve of the compounds on cells were plotted by Prism GraphPad, and the compounds IC50 calculated from it.
The cell viability assays were taken to determine the anti-tumor activity of these indicated compounds in BT474 cells, which can overexpress HER2 protein. The cells were treated with the gradient concentration of these compounds (the maximum concentration: 10 μM; 3-fold dilution ratio, 10 concentration gradients) for 72 hours and then incubated with the CCK8 reagent to determine the cell viability.

[4] abbreviates: PC-9, PC9 (Exon19 Del), 72 hours, WST (CCK8).
The mark [5] stands for this setting: HCC827 (Exon19 Del), 72 hours, WST (CCK8).
[6] abbreviates: PC-9, Table 6, canertinib-based compounds, PC9 (Exon19 Del), 72 hours, WST.
Setting [7] is: Table 6, canertinib-based compounds, HCC827 (Exon19 Del), 72 hours, WST.

Consider `COc1cc2ncnc(Nc3ccc(F)c(Cl)c3)c2cc1NC(=O)/C=C/CN1CCC(N)CC1` [SIAIS249077, (E)-4-(4-aminopiperidin-1-yl)-N-(4-((3-chloro-4-fluorophenyl)amino)-7-methoxyquinazolin-6-yl)but-2-enamide], for which the IC50 in experiment [1] (setting [4]) was 0.8 nM; in experiment [2] (setting [5]) it was 20 nM; in experiment [3] it was 12.3 nM.
For `COc1cc2ncnc(Nc3ccc(F)c(Cl)c3)c2cc1NC(=O)/C=C/CN1CCC(NC(=O)CCNc2cccc3c2C(=O)N(C2CCC(=O)NC2=O)C3=O)CC1` (centres unmarked) [SIAIS249082, (E)-N-(4-((3-chloro-4-fluorophenyl)amino)-7-methoxyquinazolin-6-yl)-4-(4-(3-((2-(2,6-dioxopiperidin-3-yl)-1,3-dioxoisoindolin-4-yl)amino)propanamido)piperidin-1-yl)but-2-enamide], in that order: 6.1 nM, 6 nM and 52.5 nM.
As for `C=CC(=O)Nc1cc2c(Nc3ccc(F)c(Cl)c3)ncnc2cc1OCCCN1CCN(C(=O)CCC(=O)NCCOCCNc2cccc3c2C(=O)N(C2CCC(=O)NC2=O)C3=O)CC1` (centres unmarked) [SIAIS249099, 4-(4-(3-((6-acrylamido-4-((3-chloro-4-fluorophenyl)amino)quinazolin-7-yl)oxy)propyl)piperazin-1-yl)-N-(2-(2-((2-(2,6-dioxopiperidin-3-yl)-1,3-dioxoisoindolin-4-yl)amino)ethoxy)ethyl)-4-oxobutanamide], the figures for the IC50 in experiment [1] (setting [6]), in experiment [2] (setting [7]) and in experiment [3] were 29.7 nM, 11.8 nM and 35.6 nM, respectively.
In the case of `C=CC(=O)Nc1cc2c(Nc3ccc(F)c(Cl)c3)ncnc2cc1OCCCN1CCN(C(=O)CCc2ccc(CCC(=O)N[C@H](C(=O)N3C[C@H](O)C[C@H]3C(=O)NCc3ccc(-c4scnc4C)cc3)C(C)(C)C)cc2)CC1` [SIAIS249102, (2S,4R)-1-((S)-2-(3-(4-(3-(4-(3-((6-acrylamido-4-((3-chloro-4-fluorophenyl)amino)quinazolin-7-yl)oxy)propyl)piperazin-1-yl)-3-oxopropyl)phenyl)propanamido)-3,3-dimethylbutanoyl)-4-hydroxy-N-(4-(4-methylthiazol-5-yl)benzyl)pyrrolidine-2-carboxamide], the IC50 in experiment [1] (setting [6]) came out at 16 nM; in experiment [2] (setting [7]), 25.2 nM; in experiment [3], 3.8 nM.
With `COc1cc2ncnc(Nc3ccc(F)c(Cl)c3)c2cc1NC(=O)/C=C/CN1CCC(N2CCN(C(=O)CCCCCCSc3cccc4c3C(=O)N(C3CCC(=O)NC3=O)C4=O)CC2)CC1` (centres unmarked) [SIAIS262033, (E)-N-(4-((3-chloro-4-fluorophenyl)amino)-7-methoxyquinazolin-6-yl)-4-(4-(4-(7-((2-(2,6-dioxopiperidin-3-yl)-1,3-dioxoisoindolin-4-yl)thio)heptanoyl)piperazin-1-yl)piperidin-1-yl)but-2-enamide], the IC50 was 3.8 nM in experiment [1] (setting [4]), roughly 1 nM in experiment [2] (setting [5]) and 0.7 nM in experiment [3].
Take `COc1cc2ncnc(Nc3ccc(F)c(Cl)c3)c2cc1NC(=O)/C=C/CN1CCC(N2CCN(CCCCCSc3cccc4c3CN(C3CCC(=O)NC3=O)C4=O)CC2)CC1` (centres unmarked) [SIAIS262064, (E)-N-(4-((3-chloro-4-fluorophenyl)amino)-7-methoxyquinazolin-6-yl)-4-(4-(4-(5-((2-(2,6-dioxopiperidin-3-yl)-1-oxoisoindolin-4-yl)thio)pentyl)piperazin-1-yl)piperidin-1-yl)but-2-enamide]: in experiment [3], the IC50 is 1.85 nM.
As for `COc1cc2ncnc(Nc3ccc(F)c(Cl)c3)c2cc1NC(=O)/C=C/CN1CCC(NC(=O)CCCCSc2cccc3c2CN(C2CCC(=O)NC2=O)C3=O)CC1` (centres unmarked) [SIAIS262113, (E)-N-(1-(4-((4-((3-chloro-4-fluorophenyl)amino)-7-methoxyquinazolin-6-yl)amino)-4-oxobut-2-en-1-yl)piperidin-4-yl)-5-((2-(2,6-dioxopiperidin-3-yl)-1-oxoisoindolin-4-yl)thio)pentanamide], the IC50 in experiment [1] (setting [4]) was 3.9 nM; in experiment [2] (setting [5]), 49 nM; in experiment [3], 67.7 nM.
For `COc1cc2ncnc(Nc3ccc(F)c(Cl)c3)c2cc1NC(=O)/C=C/CN1CCC(NC(=O)CCCCCSc2cccc3c2CN(C2CCC(=O)NC2=O)C3=O)CC1` (centres unmarked) [SIAIS262114, (E)-N-(1-(4-((4-((3-chloro-4-fluorophenyl)amino)-7-methoxyquinazolin-6-yl)amino)-4-oxobut-2-en-1-yl)piperidin-4-yl)-6-((2-(2,6-dioxopiperidin-3-yl)-1-oxoisoindolin-4-yl)thio)hexanamide], in that order: 11.9 nM, 4 nM and 90 nM.
For `COc1cc2ncnc(Nc3ccc(F)c(Cl)c3)c2cc1NC(=O)/C=C/CN1CCC(NCCCC#Cc2cccc3c2CN(C2CCC(=O)NC2=O)C3=O)CC1` (centres unmarked) [SIAIS262116, (E)-N-(4-((3-chloro-4-fluorophenyl)amino)-7-methoxyquinazolin-6-yl)-4-(4-((5-(2-(2,6-dioxopiperidin-3-yl)-1-oxoisoindolin-4-yl)pent-4-yn-1-yl)amino)piperidin-1-yl)but-2-enamide], the IC50 was 3.3 nM in experiment [1] (setting [4]), 11 nM in experiment [2] (setting [5]) and 83 nM in experiment [3].
On to `COc1cc2ncnc(Nc3ccc(F)c(Cl)c3)c2cc1NC(=O)/C=C/CN1CCC(NCCCCC#Cc2cccc3c2CN(C2CCC(=O)NC2=O)C3=O)CC1` (centres unmarked) [SIAIS262117, (E)-N-(4-((3-chloro-4-fluorophenyl)amino)-7-methoxyquinazolin-6-yl)-4-(4-((6-(2-(2,6-dioxopiperidin-3-yl)-1-oxoisoindolin-4-yl)hex-5-yn-1-yl)amino)piperidin-1-yl)but-2-enamide], for which the values for the IC50 in experiment [1] (setting [4]), in experiment [2] (setting [5]) and in experiment [3] were 31.2 nM, 16 nM and 484 nM, respectively.
In the case of `C=CC(=O)Nc1cc2c(Nc3ccc(F)c(Cl)c3)ncnc2cc1OCCCN1CCN(C(=O)CSc2cccc3c2CN(C2CCC(=O)NC2=O)C3=O)CC1` (centres unmarked) [SIAIS262121, N-(4-((3-chloro-4-fluorophenyl)amino)-7-(3-(4-(2-((2-(2,6-dioxopiperidin-3-yl)-1-oxoisoindolin-4-yl)thio)acetyl)piperazin-1-yl)propoxy)quinazolin-6-yl)acrylamide], the IC50 in experiment [1] (setting [6]) was 43.4 nM; in experiment [2] (setting [7]) it was 9.3 nM; in experiment [3], 5.3 nM.
For `C=CC(=O)Nc1cc2c(Nc3ccc(F)c(Cl)c3)ncnc2cc1OCCCN1CCN(C(=O)CCCC(=O)N[C@H](C(=O)N2C[C@H](O)C[C@H]2C(=O)NCc2ccc(-c3scnc3C)cc2)C(C)(C)C)CC1` [SIAIS262128, (2S,4R)-1-((S)-2-(5-(4-(3-((6-acrylamido-4-((3-chloro-4-fluorophenyl)amino)quinazolin-7-yl)oxy)propyl)piperazin-1-yl)-5-oxopentanamido)-3,3-dimethylbutanoyl)-4-hydroxy-N-(4-(4-methylthiazol-5-yl)benzyl)pyrrolidine-2-carboxamide], in that order: 15.9 nM, 14.3 nM and 42.1 nM.
With `COc1cc2ncnc(Nc3ccc(F)c(Cl)c3)c2cc1NC(=O)/C=C/CN1CCC(N2CCN(Cc3ccc(CNc4cccc5c4CN(C4CCC(=O)NC4=O)C5=O)cc3)CC2)CC1` (centres unmarked) [SIAIS337024, (E)-N-(4-((3-chloro-4-fluorophenyl)amino)-7-methoxyquinazolin-6-yl)-4-(4-(4-(4-(((2-(2,6-dioxopiperidin-3-yl)-1-oxoisoindolin-4-yl)amino)methyl)benzyl)piperazin-1-yl)piperidin-1-yl)but-2-enamide], the results for the IC50 in experiment [1] (setting [4]), in experiment [2] (setting [5]) and in experiment [3] were 13 nM, 1.1 nM and 51.5 nM, respectively.
For `C=CC(=O)Nc1cc2c(Nc3ccc(F)c(Cl)c3)ncnc2cc1OCCCN1CCOCC1` [canertinib, reference compound], the IC50 turned out to be 0.9 nM in experiment [1] (PC-9, 72 h); 0.7 nM in experiment [2]; 17.5 nM in experiment [3].
As to `C=CC(=O)N1CCC(Oc2cc3c(Nc4ccc(Cl)c(Cl)c4F)ncnc3cc2OC)CC1` [poziotinib, reference compound], the IC50 in experiment [1] (PC-9, Table 3, poziotinib-based compounds, PC9 (Exon 19 Del), 72 hours, WST (CCK8)) was less than 0.1 nM; in experiment [2] (setting [5]), 0.5 nM; in experiment [2] (Table 3, poziotinib-based compounds, HCC827 (Exon19 Del), 72 hours, WST (CCK8)), 0.5 nM; in experiment [3] it was less than 0.1 nM.
